Test results from patent US20130079312A1, “Method of Treating Hair Loss Due to Systemic Chemotherapy” (ELORAC, LTD., priority 2011, published 2013).

Assay: Topical vasoconstrictor formulation applied to hair-bearing areas of patients receiving cancer chemotherapy; hair loss
Assay type: in vivo

In the case of `Cc1cc(C(C)(C)C)c(O)c(C)c1CC1=NCCN1` [Oxymetazoline, oxymetazoline], the hair loss (Oxymetazoline 2.0% by weight in hydroethanolic foam, scalp and eyebrows, 60 minutes prior to intravenous nitrogen mustard, then three times daily for two week intervals) was “prevention of major hair loss”.
With `c1ccc2c(CC3=NCCN3)cccc2c1` [naphazoline] the hair loss (scalp lotion containing 0.01% naphazoline, 30 minutes prior to and 15 minutes after each course of intravenous docetaxel, breast cancer patients) was “lose little, if any, of their hair”.
